In ChEMBL document CHEMBL2074260, “Role of breast cancer resistance protein in the bioavailability and fetal penetration of topotecan” (J Natl Cancer Inst, 2000) one finds Activity data, which are given here for 3 compounds.

Holding throughout (type): functional, cell-based
The target in data set [1] is T1, Broad substrate specificity ATP-binding cassette transporter ABCG2 (Mus musculus, UniProt Q7TMS5).
T1 sequence (Q7TMS5 whole entry): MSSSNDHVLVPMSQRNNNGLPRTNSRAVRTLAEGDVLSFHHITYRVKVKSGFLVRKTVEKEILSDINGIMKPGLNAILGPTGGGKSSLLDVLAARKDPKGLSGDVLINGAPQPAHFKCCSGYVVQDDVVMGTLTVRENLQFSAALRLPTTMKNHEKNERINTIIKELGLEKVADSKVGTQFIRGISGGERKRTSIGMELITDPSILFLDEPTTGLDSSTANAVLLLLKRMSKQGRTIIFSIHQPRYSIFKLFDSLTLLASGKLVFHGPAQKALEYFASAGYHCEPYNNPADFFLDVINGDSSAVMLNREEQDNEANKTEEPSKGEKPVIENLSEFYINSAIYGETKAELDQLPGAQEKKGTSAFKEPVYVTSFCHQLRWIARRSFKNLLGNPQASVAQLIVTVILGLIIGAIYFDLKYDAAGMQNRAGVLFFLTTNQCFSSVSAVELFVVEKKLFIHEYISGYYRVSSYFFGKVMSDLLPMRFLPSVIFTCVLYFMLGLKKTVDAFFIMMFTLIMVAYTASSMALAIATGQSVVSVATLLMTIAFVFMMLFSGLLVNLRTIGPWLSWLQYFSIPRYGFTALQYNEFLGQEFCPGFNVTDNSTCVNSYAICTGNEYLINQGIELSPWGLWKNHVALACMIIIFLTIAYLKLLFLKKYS
Description: TP_TRANSPORTER: inhibition of Topotecan transepithelial transport (basal to apical)(Topotecan: 10uM, GF120918:10uM) in Bcrp1-expressing LLC-PK1 cells. The conditions noted are these: pig, llc-pk1, 10 µM.

Data set [2] concerns the target T1, Broad substrate specificity ATP-binding cassette transporter ABCG2. The data set can be described thus: TP_TRANSPORTER: transepithelial transport (basal to apical) in Bcrp1-expressing LLC-PK1 cells. The following applies: pig.
For data set [3] the target is unchanged. Description: TP_TRANSPORTER: inhibition of Topotecan transepithelial transport (basal to apical) in Bcrp1-expressing LLC-PK1 cells. The conditions noted are these: pig.

In the case of `COc1cc2c(cc1OC)CN(CCc1ccc(NC(=O)c3cccc4c(=O)c5cccc(OC)c5[nH]c34)cc1)CC2.Cl` [ELACRIDAR HYDROCHLORIDE], the Activity result in data set [1] is “inhibitor [+]”.

For `CC[C@@]1(O)C(=O)OCc2c1cc1n(c2=O)Cc2cc3c(CN(C)C)c(O)ccc3nc2-1` [TOPOTECAN], in data set [2], the Activity result is “substrate [+]”.

Consider `C/C=C/C[C@@H](C)C(=O)[C@H]1C(=O)N[C@@H](C(C)C)C(=O)N(C)CC(=O)N(C)[C@@H](CC(C)C)C(=O)N[C@@H](C(C)C)C(=O)N(C)[C@@H](CC(C)C)C(=O)N[C@@H](C)C(=O)N[C@H](C)C(=O)N(C)[C@@H](CC(C)C)C(=O)N(C)[C@@H](CC(C)C)C(=O)N(C)[C@@H](C(C)C)C(=O)N1C` [VALSPODAR], for which the Activity entry in data set [3] was “is not an inhibitor [-]”.
